# Measurements taken from patent publication US20240287173A1, “THERAPEUTIC AGENT FOR MUSCULAR ATROPHY” (NATIONAL UNIVERSITY CORPORATION KUMAMOTO UNIVERSITY, priority 2021, published 2024).
# Experiments:
# [1] = test system: wild-type mouse mechanical load-induced muscle hypertrophy model; assay: Mechanical overload (tenotomy)-induced muscle hypertrophy model; format: in vivo; conditions: DAPT 10 mg/kg i.p. after tenotomy, day 14, vs control mice
# Description: (§1) Wild-type mice were used to examine the effects of inhibition of the Notch signaling pathway on muscle in vitro. Ultra-LEAF™ anti-mouse Dll4 antibody (Dll4 blocking antibody) or Ultra-LEAF™ American hamster IgG control antibody (control antibody) was administered intraperitoneally (10 mg/kg body weight) every 4 days in each experiment. Recombinant Dll4-Fc chimeric protein (rDll4) was dissolved in phosphate-buffered saline (PBS) and administered (0.5 mg/kg body weight) every two days. The γ-secretase inhibitor, DAPT, dissolved in 10% ethanol and corn oil, was administered every 2 days (10 mg/kg body weight). Control mice were injected intraperitoneally with an equivalent volume of vehicle in rDll4 or DAPT experiments.
# Tenotomy surgery was performed on both legs of mice to induce muscle hypertrophy. In anesthetized mice, an incision was made along the midline of the calf after hair removal. […]
# (§2) Isolated PLA or TA muscles were immediately frozen in liquid nitrogen-cooled 2-methylbutane and stored at −80° C. until analysis. […] Immunostained specimens were visualized using Alexa Fluor conjugated secondary antibodies and observed using fluorescence microscopy. Image-J (NIH) was used to quantify myofiber CSA from at least 500 myofibers and count the number of satellite cells per myofiber from at least 15 myofibers.
# wild-type mouse HU model = assay: Hindlimb unloading (HU) muscle atrophy model; format: in vivo; conditions: DAPT 10 mg/kg i.p. every other day during HU period
# Description: as §1, with “Control mice were injected intraperitoneally with an equivalent volume of vehicle in rDll4 or DAPT experiments.” left out
# (§3) Total RNA was extracted from muscle tissue, isolated myofibers, cultured cells, and freshly sorted cells using ISOGEN II and RNeasy Kit (Qiagen) according to the manufacturer's instructions. […] Quantitative PCR (qPCR) was performed using THUNDERBIRD SYBR qPCR mix (TOYOBO) and real-time PCR detection system (CFX96; Bio Rad). […]
# as §2
# wild-type mouse DB model = assay: STZ-induced diabetes (DB) muscle atrophy model; format: in vivo; conditions: DAPT 10 mg/kg i.p. every other day during DB induced period
# Description: as §1, with “Control mice were injected intraperitoneally with an equivalent volume of vehicle in rDll4 or DAPT experiments.” left out
# Mice were given a single intraperitoneal injection of STZ (150 mg/kg body weight) at a level that is toxic to insulin-producing pancreatic β-cells, or an equal volume of solvent (0.1 M citrate buffer, pH 4.5) as a control was injected. Mice were monitored for hyperglycemia on day 3 using Accu-chek (Roche), and only mice that achieved casual blood glucose levels>300 mg/dl were used in the experiment. […]
# as §3
# [2] = test system: EDL myofibers derived from N2f/f mice; assay: Dll4-induced myofiber atrophy on recombinant Dll4-coated plates with γ-secretase inhibitor; format: cell-based, mouse; conditions: DAPT 10 μM, 48 hours, recombinant Dll4-coated plate
# Description: Culture dishes were coated with Notch ligand recombinant protein as reported by Sakai et al. (Sakai et al., PLOS One 12, e0177516 (2017)). Culture dishes were first coated with 10 μg/ml anti-Fc antibody for 1 hour at room temperature, followed by Matrigel (Corning) for 20 minutes. Fc antibody coated dishes were incubated with 5 ng/μl of Fc fusion protein of each Notch ligand (Dll1, Dll4, Jag1 and Jag2) for 1 hour at room temperature. Individual myofibers isolated from EDL muscle were placed in serum-free DMEM and cultured in a CO2 incubator for 48 hours. DAPT (10 µM) was used to inhibit γ-secretase activity in myofibers.
# Cultured myofibers were captured using fluorescence microscopy and diameters were quantified from at least 15 individual myofibers using ImageJ (NIH).
# Notch, which is a transmembrane receptor, has its transmembrane domain cleaved by γ-secretase, translocates its intracellular domain to the nucleus, and functions as a transcription factor. Therefore, DAPT, a γ-secretase inhibitor, was used to test the influence of γ-secretase activity on Dll4-induced myofiber atrophy. EDL myofibers derived from N2^f/f mice were cultured for 48 hours on a plate coated previously with recombinant Dll4 protein using a medium containing a γ-secretase inhibitor DAPT (10 μM) or PBS.
structure (smiles),measurement,setting,value
C[C@H](NC(=O)Cc1cc(F)cc(F)c1)C(=O)N[C@H](C(=O)OC(C)(C)C)c1ccccc1 [DAPT],muscle hypertrophy (overload-induced PLA muscle weight gain),[1],muscle hypertrophy was exhibited more readily
same,"muscle atrophy (muscle mass of SOL, PLA, GAS)",wild-type mouse HU model,significant suppression of muscle atrophy
same,muscle atrophy (muscle mass),wild-type mouse DB model,significant suppression of muscle atrophy
same,myofiber atrophy on Dll4 stimulation (myofiber diameter),[2],resistant to Dll4 stimulation
